Series [1] concerns mouse striatal and frontal cortex neurochemistry. The note with it: for dopamine or 5-HT neurochemistry and transmitter metabolites: (+)- versus (-)-enantiomer.
For series [2], the target named is bovine striatal adenosine receptors. Briefly: Displacement of [3H]-NECA (non-selective P1 ligand) binding to striatal membranes.
For series [3] the following is noted: human, in vivo; cited from earlier work.
Series [4] relates to haloperidol-induced catalepsy. Kind of series: Haloperidol-induced catalepsy in the rat. The note with it: 0.1-10 mg/kg p.o. 6 h prior to testing; haloperidol 0.2 mg/kg i.p.
Description: Evaluation of Potential Anti-Parkinsonian Activity in vivo Haloperidol-induced Catalepsy in the Rat
This method assessed the ability of an animal to respond to an externally imposed posture after receiving the neuroleptic dopamine D2 antagonist haloperidol.
Haloperidol (0.2 mg/kg) was obtained in injectable form and diluted to a final concentration using physiological saline. 3,7-Dimethyl-1-propargylxanthine(DMPX) (0, 3 mg/kg) was dissolved in saline. All drugs were administered in a volume of 2 ml/kg.
The test procedure was as follows:
Step I The rat was taken out of the home cage and placed on a table.
Step II The front paws of the rat were placed alternately on a 3 cm high wooden block.
Step III The front paws of the rat were placed alternately on a 9 cm high wooden block. […] Thus for any animal the highest score obtainable was 3.5 (cut-off score) reflecting total catalepsy.
Data from the experiment were analysed using Kruskal-Wallis ANOVA followed by Mann-Whitney U test when appropriate, and are expressed as means +/- standard error of the mean *p<0.05 versus vehicle control.
The target in series [5] is human recombinant (HEK-293) adenosine A2A receptor. The note with it: read-out: Ki adenosine A2A, cited from earlier work.
Series [6] concerns the target human recombinant (HEK-293) adenosine A3 receptor. The note with it: read-out: Ki adenosine A3; cited from earlier work.
Series [7] addresses adenosine A1 receptor. Conditions: read-out: Ki adenosine A1, cited from earlier work.
Series [8] has as its system catalepsy. Conditions: cited from earlier work.
In series [9] the test system is haloperidol-induced catalepsy. Conditions: literature; cited from earlier work.
The test system of series [10] is Parkinson's disease. The note with it: 150 mg/day slow release oral, up to 12 weeks, cited from earlier work.
The conditions of series [11]: 150 mg/day slow release oral, after one week; 10080 min; cited from earlier work.

The structures appear in SMILES notation. Like-named read-outs stand apart in the source and are kept apart here.

For `O[C@H](c1cc(C(F)(F)F)nc2c(C(F)(F)F)cccc12)[C@@H]1CCCCN1` [(+) enantiomer, (+)-(11R,2'S)-α-2-piperidinyl-2,8-bis(trifluoromethyl)-4-quinolinemethanol], in series [1] (100 mg/kg p.o., 24 h), the frontal cortex acetylcholine result is listed as “unaffected”; the “dopamine or 5-HT neurochemistry and transmitter metabolites” value is “No significant difference”. In addition, affinity in series [2] was put at a Ki of 38000 nM.

Take `O[C@@H](c1cc(C(F)(F)F)nc2c(C(F)(F)F)cccc12)[C@H]1CCCCN1` [(-) enantiomer, (-)-(11S,2'R)-α-2-piperidinyl-2,8-bis(trifluoromethyl)-4-quinolinemethanol]: the half life in series [3] is 14.4 days. Besides, in series [1] (100 mg/kg p.o., 24 h), the frontal cortex acetylcholine result is reported as “unaffected”; the “striatal acetylcholine content, (-)- versus (+)-enantiomer” value is “significantly higher”; the “striatal acetylcholine content, post-hoc Duncan's test between enantiomers” value was “between the (+)-enantiomer and the (-)-enantiomer (p<0.01)”; the “striatal acetylcholine content, post-hoc Duncan's test versus vehicle” value was “significant difference between vehicle and the (-)-enantiomer (p<0.05)”. Further, the “dopamine or 5-HT neurochemistry and transmitter metabolites” value in [1] (100 mg/kg p.o., 24 h) is recorded as “No significant difference”. The “acetylcholine release in striatum (suggested by FIG. 6)” value in [1] (inferred from tissue acetylcholine content) was “inhibits acetylcholine release in striatum”. This compound gave a Ki in series [2] of 83 nM. For the same compound, the “blocking of haloperidol-induced catalepsy” value in [4] is given as “capable of blocking haloperidol-induced catalepsy”.

For the compound `OC[C@H]1O[C@@H](n2cnc3c(NC4CCCCC4)ncnc32)[C@H](O)[C@@H]1O` [CHA], the Ki in [5] is 510 nM; in [6], 7700 nM.

In the case of `CCCn1c(=O)c2c(nc(/C=C/c3ccc(OC)c(OC)c3)n2C)n(CCC)c1=O` [KF17837, (E)-8-(3,4-dimethoxystyryl)-1,3-dipropyl-7-methylxanthine], the inhibitory constant (Ki) in series [7] (comparative literature data) was 390 nM; in [5] (comparative literature data) it was 8 nM. Besides, in [8] (combination), the “anticataleptic effects of a subthreshold dose of L-DOPA plus benserazide” value is recorded as “potentiated”. Besides, in series [8] (in vivo), the “catalepsy induced by haloperidol and reserpine” value is “reduced”. Further, the “cataleptic responses induced by intracerebroventricular CGS 21680” value in series [8] (oral administration) is recorded as “significantly ameliorated”.

Consider `CCn1c(=O)c2c(nc(/C=C/c3ccc(OC)c(OC)c3)n2C)n(CC)c1=O` [KW-6002], for which the results for the Ki in [7] and in series [5] were 580 nM and 13 nM, respectively.

As for `N[C@@H](Cc1ccc(O)c(O)c1)C(=O)O` [L-DOPA], the “blocking of haloperidol-induced catalepsy” value in series [9] is given as “block haloperidol-induced catalepsy”.

In the case of `CNC(=O)[C@H]1O[C@@H](n2cnc3c(N)ncnc32)[C@H](O)[C@@H]1O` [MECA, 5'-N-methylcarboxamidoadenosine], in series [2], the Ki was determined as 58 nM.

In the case of `CCNC(=O)[C@H]1O[C@@H](n2cnc3c(N)ncnc32)[C@H](O)[C@@H]1O` [NECA, 5'-N-ethylcarboxamidoadenosine], in series [5], the inhibition constant (Ki) was […].

With `Cn1c(=O)c2[nH]cnc2n(C)c1=O` [THEOPHYLLINE, theophylline], the “mean objective disability scores” value in series [10] (15 patients) is “significant improvements”. Besides, the “patients reporting moderate or marked subjective improvement” value in series [10] (of 15 patients) is on record as 11. The serum theophylline levels in series [11] is recorded as 4.44 mg/L.

Broadly, the Ki is a measure of affinity in units of concentration, obtained from inhibition or displacement.

The values above are taken from US6197788A, “(-)-mefloquine to block puringergic receptors and to treat movement or neurodegenerative disorders” (Vernalis Research Limited, priority 1997, dated 2001).
